# In paper PMC11240139, “Exploring the antitumor potential of novel quinoline derivatives via tubulin polymerization inhibition in breast cancer; design, synthesis and molecular docking” (RSC Advances, 2024):
# Key:
# CCRF-CEM (leukemia) = assay: NCI-60 SRB cytotoxicity screen; assay type: cell-based; conditions: Homo sapiens, single dose 10 μM, read-out: growth inhibition (GI%)
# K-562 (leukemia) = assay: NCI-60 SRB cytotoxicity screen; assay type: cell-based; conditions: Homo sapiens; K-652 [sic], single dose 10 μM; read-out: growth inhibition (GI%)
# RPMI-8226 (leukemia) = assay: NCI-60 SRB cytotoxicity screen; assay type: cell-based; conditions: Homo sapiens; RPMI-8226, single dose 10 μM; read-out: growth inhibition (GI%)
# SR (leukemia) = assay: NCI-60 SRB cytotoxicity screen; assay type: cell-based; conditions: single dose 10 μM; for inhibition at 10 µM: read-out: growth inhibition (GI%)
# [1] = test system: A549/ATCC (non-small cell lung cancer); assay: NCI-60 SRB cytotoxicity screen; assay type: cell-based; conditions: Homo sapiens, single dose 10 μM, read-out: growth inhibition (GI%)
# [2] = test system: EKVX (non-small cell lung cancer); assay: NCI-60 SRB cytotoxicity screen; assay type: cell-based; conditions: Homo sapiens, single dose 10 μM, read-out: growth inhibition (GI%)
# [3] = test system: HOP-62 (non-small cell lung cancer); assay: NCI-60 SRB cytotoxicity screen; assay type: cell-based; conditions: Homo sapiens; HOP-62, single dose 10 μM; read-out: growth inhibition (GI%)
# [4] = test system: NCI-H522 (non-small cell lung cancer); assay: NCI-60 SRB cytotoxicity screen; assay type: cell-based; conditions: Homo sapiens; NCI-H522, single dose 10 μM; read-out: growth inhibition (GI%)
# COLO 205 (colon cancer) = assay: NCI-60 SRB cytotoxicity screen; assay type: cell-based; conditions: Homo sapiens; COLO 205, single dose 10 μM; read-out: growth inhibition (GI%)
# HCT-15 (colon cancer) = assay: NCI-60 SRB cytotoxicity screen; assay type: cell-based; conditions: Homo sapiens; HCT-15, single dose 10 μM; read-out: growth inhibition (GI%)
# KM12 (colon cancer) = assay: NCI-60 SRB cytotoxicity screen; assay type: cell-based; conditions: Homo sapiens; KM12, single dose 10 μM; read-out: growth inhibition (GI%)
# SF-268 (CNS cancer) = assay: NCI-60 SRB cytotoxicity screen; assay type: cell-based; conditions: Homo sapiens; SF-268, single dose 10 μM; read-out: growth inhibition (GI%)
# SF-295 (CNS cancer) = assay: NCI-60 SRB cytotoxicity screen; assay type: cell-based; conditions: Homo sapiens; SF-295, single dose 10 μM; read-out: growth inhibition (GI%)
# SNB-75 (CNS cancer) = assay: NCI-60 SRB cytotoxicity screen; assay type: cell-based; conditions: Homo sapiens, SNB-75, SNB-75, single dose 10 μM; read-out: growth inhibition (GI%)
# LOX IMVI (melanoma) = assay: NCI-60 SRB cytotoxicity screen; assay type: cell-based; conditions: Homo sapiens, single dose 10 μM, read-out: growth inhibition (GI%)
# MALME-3M (melanoma) = assay: NCI-60 SRB cytotoxicity screen; assay type: cell-based; conditions: Homo sapiens, single dose 10 μM, read-out: growth inhibition (GI%)
# SK-MEL-2 (melanoma) = assay: NCI-60 SRB cytotoxicity screen; assay type: cell-based; conditions: Homo sapiens; SK-MEL-2, single dose 10 μM; read-out: growth inhibition (GI%)
# UACC-257 (melanoma) = assay: NCI-60 SRB cytotoxicity screen; assay type: cell-based; conditions: Homo sapiens; UACC-257, single dose 10 μM; read-out: growth inhibition (GI%)
# UACC-62 (melanoma) = assay: NCI-60 SRB cytotoxicity screen; assay type: cell-based; conditions: Homo sapiens; UACC-62, single dose 10 μM; read-out: growth inhibition (GI%)
# IGROV1 (ovarian cancer) = assay: NCI-60 SRB cytotoxicity screen; assay type: cell-based; conditions: Homo sapiens, IGROV-1; IGROV1, single dose 10 μM; read-out: growth inhibition (GI%)
# OVCAR-5 (ovarian cancer) = assay: NCI-60 SRB cytotoxicity screen; assay type: cell-based; conditions: Homo sapiens; OVCAR-5, single dose 10 μM; read-out: growth inhibition (GI%)
# OVCAR-8 (ovarian cancer) = assay: NCI-60 SRB cytotoxicity screen; assay type: cell-based; conditions: Homo sapiens; OVCAR-8, single dose 10 μM; read-out: growth inhibition (GI%)
# [5] = test system: NCI/ADR-RES (ovarian cancer); assay: NCI-60 SRB cytotoxicity screen; assay type: cell-based; conditions: Homo sapiens, single dose 10 μM, read-out: growth inhibition (GI%)
# SK-OV-3 (ovarian cancer) = assay: NCI-60 SRB cytotoxicity screen; assay type: cell-based; conditions: Homo sapiens; SK-OV-3, single dose 10 μM; read-out: growth inhibition (GI%)
# ACHN (renal cancer) = assay: NCI-60 SRB cytotoxicity screen; assay type: cell-based; conditions: Homo sapiens, single dose 10 μM, read-out: growth inhibition (GI%)
# RXF 393 (renal cancer) = assay: NCI-60 SRB cytotoxicity screen; assay type: cell-based; conditions: Homo sapiens; RXF 393, single dose 10 μM; read-out: growth inhibition (GI%)
# DU-145 (prostate cancer) = assay: NCI-60 SRB cytotoxicity screen; assay type: cell-based; conditions: Homo sapiens; DU-145, single dose 10 μM; read-out: growth inhibition (GI%)
# HS 578T (breast cancer) = assay: NCI-60 SRB cytotoxicity screen; assay type: cell-based; conditions: Homo sapiens, single dose 10 μM, read-out: growth inhibition (GI%)
# BT-549 (breast cancer) = assay: NCI-60 SRB cytotoxicity screen; assay type: cell-based; conditions: Homo sapiens; BT-549, single dose 10 μM; read-out: growth inhibition (GI%)
# T-47D (breast cancer) = assay: NCI-60 SRB cytotoxicity screen; assay type: cell-based; conditions: Homo sapiens, T47D, single dose 10 μM, read-out: growth inhibition (GI%)
Structure (SMILES),inhibition at 10 µM (CCRF-CEM (leukemia)) [%],inhibition at 10 µM (K-562 (leukemia)) [%],inhibition at 10 µM (RPMI-8226 (leukemia)) [%],inhibition at 10 µM (SR (leukemia)) [%],inhibition at 10 µM [1] [%],inhibition at 10 µM [2] [%],inhibition at 10 µM [3] [%],inhibition at 10 µM [4] [%],inhibition at 10 µM (COLO 205 (colon cancer)) [%],inhibition at 10 µM (HCT-15 (colon cancer)) [%],inhibition at 10 µM (KM12 (colon cancer)) [%],inhibition at 10 µM (SF-268 (CNS cancer)) [%],inhibition at 10 µM (SF-295 (CNS cancer)) [%],inhibition at 10 µM (SNB-75 (CNS cancer)) [%],inhibition at 10 µM (LOX IMVI (melanoma)) [%],inhibition at 10 µM (MALME-3M (melanoma)) [%],inhibition at 10 µM (SK-MEL-2 (melanoma)) [%],inhibition at 10 µM (UACC-257 (melanoma)) [%],inhibition at 10 µM (UACC-62 (melanoma)) [%],inhibition at 10 µM (IGROV1 (ovarian cancer)) [%],further results
"CCc1cccc2cc(-c3cc(-c4cc(OC)c(OC)c(OC)c4)[nH]c(=S)c3C#N)c(Cl)nc12 [Compound 5c, 4-(2-Chloro-8-ethylquinolin-3-yl)-2-thioxo-6-(3,4,5-trimethoxyphenyl)-1,2-dihydropyridine-3-carbonitrile]",57.6,33.9,63.1,49,38.1,34.9,10.6,65.7,12.7,29,37.2,31.7,31,< 10,38.3,< 10,33,20.1,33.5,33.4,inhibition at 10 µM (OVCAR-5 (ovarian cancer)): < 10%; inhibition at 10 µM (OVCAR-8 (ovarian cancer)): 36.7%; inhibition at 10 µM [5]: 28.5%; inhibition at 10 µM (SK-OV-3 (ovarian cancer)): < 10%; inhibition at 10 µM (ACHN (renal cancer)): 32.5%; inhibition at 10 µM (RXF 393 (renal cancer)): 37.3%; inhibition at 10 µM (DU-145 (prostate cancer)): 32.3%; inhibition at 10 µM (HS 578T (breast cancer)): 32.7%; inhibition at 10 µM (BT-549 (breast cancer)): 21.1%; inhibition at 10 µM (T-47D (breast cancer)): 60.6%; melting point: 279 to 281 °C
"CCc1cccc2cc(C=CC(=O)c3ccc(OC)c(OC)c3)c(Cl)nc12 [Compound 3b, 3-(2-Chloro-8-ethylquinolin-3-yl)-1-(3,4-dimethoxyphenyl)prop-2-en-1-one]",65,55.7,56.2,80.1,43.5,< 10,< 10,41.5,22.4,20.4,23.5,< 10,21.8,> 100,43.4,< 10,< 10,< 10,35.9,< 10,growth inhibition (GI%) (SR (leukemia)): 80.06%; inhibition at 10 µM (OVCAR-5 (ovarian cancer)): 12.5%; inhibition at 10 µM (OVCAR-8 (ovarian cancer)): 57.8%; inhibition at 10 µM [5]: 45.8%; inhibition at 10 µM (SK-OV-3 (ovarian cancer)): < 10%; inhibition at 10 µM (ACHN (renal cancer)): 24.5%; inhibition at 10 µM (RXF 393 (renal cancer)): 22.1%; inhibition at 10 µM (DU-145 (prostate cancer)): 15.8%; inhibition at 10 µM (HS 578T (breast cancer)): < 10%; inhibition at 10 µM (BT-549 (breast cancer)): 50.3%; inhibition at 10 µM (T-47D (breast cancer)): 57.9%; melting point: 135 to 137 °C
"CCc1cccc2cc(-c3cc(-c4ccc(OC)cc4)[nH]c(=S)c3C#N)c(Cl)nc12 [Compound 5a, 4-(2-Chloro-8-ethylquinolin-3-yl)-6-(4-methoxyphenyl)-2-thioxo-1,2-dihydropyridine-3-carbonitrile]",< 10,28.8,15.7,11.6,< 10,10.3,< 10,19.6,< 10,< 10,< 10,23.1,13.8,21.6,< 10,< 10,< 10,< 10,20.5,12.9,inhibition at 10 µM (OVCAR-5 (ovarian cancer)): < 10%; inhibition at 10 µM (OVCAR-8 (ovarian cancer)): 10.1%; inhibition at 10 µM [5]: < 10%; inhibition at 10 µM (SK-OV-3 (ovarian cancer)): < 10%; inhibition at 10 µM (ACHN (renal cancer)): < 10%; inhibition at 10 µM (RXF 393 (renal cancer)): 20.6%; inhibition at 10 µM (DU-145 (prostate cancer)): < 10%; inhibition at 10 µM (HS 578T (breast cancer)): 19.8%; inhibition at 10 µM (BT-549 (breast cancer)): 20.4%; inhibition at 10 µM (T-47D (breast cancer)): 12.7%; melting point: 290 to 292 °C
"CCc1cccc2cc(C=CC(=O)c3cc(OC)c(OC)c(OC)c3)c(Cl)nc12 [Compound 3c, 3-(2-Chloro-8-ethylquinolin-3-yl)-1-(3,4,5-trimethoxyphenyl)prop-2-en-1-one]",87.8,68.1,78.2,61.5,52.1,17.1,< 10,80.7,18.4,44.5,80.7,32.2,31.3,61.7,72,14.8,44.5,43.6,41.9,< 10,inhibition at 10 µM (OVCAR-5 (ovarian cancer)): 26.8%; inhibition at 10 µM (OVCAR-8 (ovarian cancer)): 84%; inhibition at 10 µM [5]: 67.6%; inhibition at 10 µM (SK-OV-3 (ovarian cancer)): 17.4%; inhibition at 10 µM (ACHN (renal cancer)): 32%; inhibition at 10 µM (RXF 393 (renal cancer)): 42.6%; inhibition at 10 µM (DU-145 (prostate cancer)): 29%; inhibition at 10 µM (HS 578T (breast cancer)): < 10%; inhibition at 10 µM (BT-549 (breast cancer)): 76.1%; inhibition at 10 µM (T-47D (breast cancer)): 72.8%; melting point: 140 to 142 °C
"CCc1cccc2cc(-c3cc(-c4ccc(OC)c(OC)c4)[nH]c(=O)c3C#N)c(Cl)nc12 [Compound 4b, 4-(2-Chloro-8-ethylquinolin-3-yl)-6-(3,4-dimethoxyphenyl)-2-oxo-1,2-dihydropyridine-3-carbonitrile]",< 10,20,< 10,< 10,< 10,14.2,< 10,14.7,< 10,< 10,< 10,16.1,< 10,29.6,< 10,< 10,< 10,< 10,< 10,< 10,inhibition at 10 µM (OVCAR-5 (ovarian cancer)): < 10%; inhibition at 10 µM (OVCAR-8 (ovarian cancer)): < 10%; inhibition at 10 µM [5]: < 10%; inhibition at 10 µM (SK-OV-3 (ovarian cancer)): < 10%; inhibition at 10 µM (ACHN (renal cancer)): < 10%; inhibition at 10 µM (RXF 393 (renal cancer)): 33.8%; inhibition at 10 µM (DU-145 (prostate cancer)): < 10%; inhibition at 10 µM (HS 578T (breast cancer)): 10.3%; inhibition at 10 µM (BT-549 (breast cancer)): < 10%; inhibition at 10 µM (T-47D (breast cancer)): 16.6%; melting point: 280 to 282 °C
